# Patent US8445497B2, “Compounds for the treatment of hepatitis C” (Bristol-Myers Squibb Company, priority 2010, dated 2013)
# Tests used:
# HCV [1] = conditions: single agent: transient decrease then rebound; more robust drop with interferon and ribavirin; cited from earlier work
# [2] = extended dosing of the combination regimens with interferon and ribavirin; cited from earlier work
# [3] = tested on: genotype 1a or 1b HCV replicon in Huh-7 cells; test: HCV replicon luciferase assay; type: cell-based; conditions: Hepatitis C virus, 72 h; Huh-7 HCV replicon, Renilla luciferase, 3 days; genotype 1a or 1b not stated
# Protocol: Cell lines. The cell lines used to evaluate compounds consist of a human hepatocyte derived cell line (Huh-7) that constitutively expresses a genotype 1a or 1b HCV replicon containing a Renilla luciferase reporter gene. These cells were maintained in Dulbecco's modified Eagle medium (DMEM) containing 10% FBS, 100 U/mL penicillin/streptomycin and 1.0 mg/mL G418.
# HCV replicon luciferase assay. To evaluate compound efficacy, HCV replicon cells were seeded in 96-well plates in DMEM containing 10% FBS at a cell density of 10^4/well. Following incubation at 37° C. overnight, compounds serially diluted in DMSO were added to the cell plates. Alternatively, titrated compounds were transferred to sterile 384-well tissue-culture treated plates and the plates seeded with 50 μL of cells at a density of 2.4×10^3 cells/well in DMEM containing 4% FCS (final DMSO concentration at 0.5%). After 3 days incubation at 37° C., cells were analyzed for Renilla Luciferase activity using the EnduRen substrate (Promega cat #E6485) according to the manufacturer's directions. Briefly, the EnduRen substrate was diluted in DMEM and then added to the plates to a final concentration of 7.5 μM. The plates were incubated for at least 1 h at 37° C. then read on a TopCount NXT Microplate Scintillation and Luminescence Counter (Packard) or Viewlux Imager (PerkinElmer) using a luminescence program. […]
# HCV NS5B = target: T1, HCV NS5B (Hepatitis C virus genotype 1b, UniProt Q9WMX2); test: HCV NS5B RdRp enzyme assay; type: biochemical; conditions: HCV NS5B RdRp genotype 1b
# T1 construct: The protein was expressed with an 18 amino acid C-terminal truncation to enhance the solubility; made in house; host or cells: E. coli BL21(DE3)
# T1 sequence (Q9WMX2 2420-2992): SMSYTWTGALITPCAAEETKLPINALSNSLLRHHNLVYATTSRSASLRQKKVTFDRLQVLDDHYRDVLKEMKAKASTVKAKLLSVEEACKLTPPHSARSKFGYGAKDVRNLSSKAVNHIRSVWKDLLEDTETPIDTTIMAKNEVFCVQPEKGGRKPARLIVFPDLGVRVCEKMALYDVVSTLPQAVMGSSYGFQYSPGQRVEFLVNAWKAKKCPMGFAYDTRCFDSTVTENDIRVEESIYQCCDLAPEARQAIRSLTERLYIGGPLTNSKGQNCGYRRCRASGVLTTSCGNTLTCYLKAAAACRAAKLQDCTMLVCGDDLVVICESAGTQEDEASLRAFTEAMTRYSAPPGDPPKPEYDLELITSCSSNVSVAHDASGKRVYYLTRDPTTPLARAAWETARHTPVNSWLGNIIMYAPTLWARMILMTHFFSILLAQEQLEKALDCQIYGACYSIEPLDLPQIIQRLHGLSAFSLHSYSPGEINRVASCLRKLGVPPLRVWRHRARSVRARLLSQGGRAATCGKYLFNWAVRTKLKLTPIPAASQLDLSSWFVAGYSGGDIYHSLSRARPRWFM
# Protocol: HCV NS5B RdRp cloning, expression, and purification. The cDNA encoding the NS5B protein of HCV, genotype 1b, was cloned into the pET21a expression vector. The protein was expressed with an 18 amino acid C-terminal truncation to enhance the solubility. The E. coli competent cell line BL21(DE3) was used for expression of the protein. Cultures were grown at 37° C. for ˜4 hours until the cultures reached an optical density of 2.0 at 600 nm. The cultures were cooled to 20° C. and induced with 1 mM IPTG. Fresh ampicillin was added to a final concentration of 50 μg/mL and the cells were grown overnight at 20° C.
# Cell pellets (3 L) were lysed for purification to yield 15-24 mgs of purified NS5B. The lysis buffer consisted of 20 mM Tris-HCl, pH 7.4, 500 mM NaCl, 0.5% triton X-100, 1 mM DTT, 1 mM EDTA, 20% glycerol, 0.5 mg/ml lysozyme, 10 mM MgCl2, 15 ug/ml deoxyribonuclease I, and Complete TM protease inhibitor tablets (Roche). After addition of the lysis buffer, frozen cell pellets were resuspended using a tissue homogenizer. To reduce the viscosity of the sample, aliquots of the lysate were sonicated on ice using a microtip attached to a Branson sonicator. […]
# Standard HCV NS5B RdRp enzyme assay. […] Plates were read on a Packard Top Count NXT after >1 hr incubation at room temperature. […]
# HCV [4] = conditions: combination therapy, Poynard et al. 1998; cited from earlier work
compound,measurement,setting,value
CNC(=O)c1c(-c2ccc(F)cc2)oc2cc(N(CCO)S(C)(=O)=O)c(C3CC3)cc12 [HCV-796],HCV RNA levels in patients,HCV [1],showed an ability to reduce HCV RNA levels in patients
same,hepatic toxicity,[2],hepatic toxicity observed
CNC(=O)c1c(-c2ccc(Oc3ccc(F)cc3)cc2)oc2ccc(-c3cc(C(=O)NC4(c5ncccn5)CC4)c(OC)cc3C)c(F)c12 [4-Fluoro-2-(4-(4-fluorophenoxy)phenyl)-5-(4-methoxy-2-methyl-5-(1-(pyrimidin-2-yl)cyclopropylcarbamoyl)phenyl)-N-methylbenzofuran-3-carboxamide],EC50,[3],5 µM
same,IC50,HCV NS5B,24 µM
alpha-interferon and ribavirin,"sustained efficacy, share of patients",HCV [4],40%
